Results from ChEMBL document CHEMBL3822394, “Discovery of a Potent, Selective, Orally Bioavailable, and Efficacious Novel 2-(Pyrazol-4-ylamino)-pyrimidine Inhibitor of the Insulin-like Growth Factor-1 Receptor (IGF-1R)” (J Med Chem, 2016).
In brackets after ≈: the same amount, converted by molar mass. Each block holds one compound with its values, some of them ahead of it. Activity calls are given as the source filed them. The calls are words filed in the database; no cut-off is given here.

Legend:
[1] = Octanol-buffer partition co-efficient, log D of the compound at pH 7.4 by shake-flask method; assay type: physicochemical
[2] = Thermodynamic solubility of the compound in aqueous phosphate buffer at pH 7.4 at 25 degC after 24 hrs by LC-UV method; assay type: physicochemical; conditions: read-out: Therm_solubility
[3] = target: Cyclin-dependent kinase 2 (Homo sapiens, UniProt P24941)
[4] = Oral bioavailability in Beagle dog at 10 umol/kg; assay type: ADME, organism-based, Canis lupus familiaris; conditions: in vivo
[5] = Oral bioavailability in Han Wistar rat plasma at 10 umol/kg; assay type: ADME, organism-based
[6] = Clearance in Han Wistar rat plasma at 2 or 4 umol/kg, iv or 10 umol/kg, po; assay type: ADME, organism-based
[7] = Volume of distribution at steady state in Beagle dog at 1 or 4 umol/kg, iv or 10 umol/kg, po; assay type: ADME, organism-based, Canis lupus familiaris; conditions: in vivo, read-out: Vdss
[8] = Intrinsic clearance in rat hepatocytes assessed per 10^6 cells; assay type: ADME, cell-based, Hepatocyte; conditions: read-out: CLH
[9] = Intrinsic clearance in human hepatocytes assessed per 10^6 cells; assay type: ADME, cell-based, Hepatocyte; conditions: read-out: CLH
[10] = Fraction unbound in dog plasma by equilibrium dialysis; assay type: ADME, cell-free, Canis lupus familiaris
[11] = Fraction unbound in rat plasma by equilibrium dialysis; assay type: ADME, cell-free
[12] = Volume of distribution at steady state in Han Wistar rat plasma at 2 or 4 umol/kg, iv or 10 umol/kg, po; assay type: ADME, organism-based; conditions: read-out: Vdss
[13] = Intrinsic clearance in dog hepatocytes assessed per 10^6 cells; assay type: ADME, cell-based, Canis lupus familiaris, Hepatocyte; conditions: read-out: CLH
[14] = Clearance in Beagle dog plasma at 1 or 4 umol/kg, iv or 10 umol/kg, po; assay type: ADME, organism-based, Canis lupus familiaris
[15] = Oral bioavailability in Han Wistar rat blood at 10 umol/kg; assay type: ADME, organism-based; conditions: whole blood
[16] = Clearance in Han Wistar rat blood at 2 or 4 umol/kg, iv or 10 umol/kg, po; assay type: ADME, organism-based; conditions: whole blood
[17] = Volume of distribution at steady state in Han Wistar rat blood at 2 or 4 umol/kg, iv or 10 umol/kg, po; assay type: ADME, organism-based; conditions: whole blood, read-out: Vdss
[18] = target: Cyclin-dependent kinase 1 (Homo sapiens, UniProt P06493)
Chain of Cyclin-dependent kinase 1 (P06493 whole entry): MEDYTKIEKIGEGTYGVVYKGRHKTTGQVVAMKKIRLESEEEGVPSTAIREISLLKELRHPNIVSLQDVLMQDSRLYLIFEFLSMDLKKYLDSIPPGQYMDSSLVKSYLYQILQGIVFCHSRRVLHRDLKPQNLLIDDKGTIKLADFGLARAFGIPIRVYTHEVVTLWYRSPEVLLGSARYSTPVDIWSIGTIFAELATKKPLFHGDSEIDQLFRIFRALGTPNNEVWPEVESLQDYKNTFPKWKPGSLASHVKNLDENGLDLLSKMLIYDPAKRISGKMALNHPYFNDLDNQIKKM

[19] = target: Cyclin-dependent kinase 8 (Homo sapiens, UniProt P49336)
Chain of Cyclin-dependent kinase 8 (P49336 whole entry): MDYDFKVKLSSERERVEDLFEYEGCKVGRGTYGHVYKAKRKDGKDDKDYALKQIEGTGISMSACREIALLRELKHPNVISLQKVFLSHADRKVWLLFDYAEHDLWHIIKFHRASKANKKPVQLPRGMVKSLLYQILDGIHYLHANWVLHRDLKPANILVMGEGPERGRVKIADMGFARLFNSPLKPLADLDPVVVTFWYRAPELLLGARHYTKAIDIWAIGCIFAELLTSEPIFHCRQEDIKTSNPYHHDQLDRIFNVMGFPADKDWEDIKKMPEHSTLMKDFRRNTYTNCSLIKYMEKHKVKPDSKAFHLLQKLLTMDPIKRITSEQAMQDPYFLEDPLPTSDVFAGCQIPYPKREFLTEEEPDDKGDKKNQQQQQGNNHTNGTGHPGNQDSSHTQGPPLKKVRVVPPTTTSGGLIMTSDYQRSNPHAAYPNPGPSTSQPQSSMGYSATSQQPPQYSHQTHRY

[20] = target: Cyclin-dependent kinase 7 (Homo sapiens, UniProt P50613)
Chain of Cyclin-dependent kinase 7 (P50613 whole entry): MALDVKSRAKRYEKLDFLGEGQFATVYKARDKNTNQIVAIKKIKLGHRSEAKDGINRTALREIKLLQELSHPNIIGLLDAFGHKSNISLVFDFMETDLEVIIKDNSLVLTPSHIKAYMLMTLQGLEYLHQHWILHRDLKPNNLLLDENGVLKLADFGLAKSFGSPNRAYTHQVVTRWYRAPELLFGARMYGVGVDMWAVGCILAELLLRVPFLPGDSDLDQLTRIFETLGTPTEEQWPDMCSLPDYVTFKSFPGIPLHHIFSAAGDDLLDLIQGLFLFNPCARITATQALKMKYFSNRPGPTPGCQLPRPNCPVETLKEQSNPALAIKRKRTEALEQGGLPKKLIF

[21] = target: Cyclin-dependent kinase 9 (Homo sapiens, UniProt P50750)
Chain of Cyclin-dependent kinase 9 (P50750 whole entry): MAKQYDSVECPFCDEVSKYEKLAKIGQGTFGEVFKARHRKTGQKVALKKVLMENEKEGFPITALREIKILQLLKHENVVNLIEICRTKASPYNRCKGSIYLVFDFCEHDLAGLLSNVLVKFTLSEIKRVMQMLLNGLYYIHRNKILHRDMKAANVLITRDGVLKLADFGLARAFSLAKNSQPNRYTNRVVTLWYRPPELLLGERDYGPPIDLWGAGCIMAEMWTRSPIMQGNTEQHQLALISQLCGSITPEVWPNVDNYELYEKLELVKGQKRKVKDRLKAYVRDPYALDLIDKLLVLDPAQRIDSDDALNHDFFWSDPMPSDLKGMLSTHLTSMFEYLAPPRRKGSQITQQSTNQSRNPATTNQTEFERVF

Cytochrome P450 3A4 = Cytochrome P450 3A4 (Homo sapiens, UniProt P08684)
Chain of Cytochrome P450 3A4 (P08684 whole entry): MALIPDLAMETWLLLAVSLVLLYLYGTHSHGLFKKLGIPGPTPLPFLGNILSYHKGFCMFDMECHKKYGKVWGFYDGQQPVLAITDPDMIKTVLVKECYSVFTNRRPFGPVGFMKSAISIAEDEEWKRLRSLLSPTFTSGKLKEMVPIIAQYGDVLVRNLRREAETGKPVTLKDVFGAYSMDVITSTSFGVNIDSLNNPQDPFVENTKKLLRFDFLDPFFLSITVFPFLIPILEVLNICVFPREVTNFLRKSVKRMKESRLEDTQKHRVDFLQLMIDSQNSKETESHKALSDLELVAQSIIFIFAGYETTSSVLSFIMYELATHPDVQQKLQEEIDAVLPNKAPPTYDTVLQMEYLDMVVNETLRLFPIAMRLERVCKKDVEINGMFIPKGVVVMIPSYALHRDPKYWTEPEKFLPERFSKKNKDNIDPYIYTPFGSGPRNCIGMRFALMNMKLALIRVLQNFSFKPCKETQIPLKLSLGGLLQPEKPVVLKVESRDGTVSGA

P12 [22] = assay: Inhibition of IGF1R phosphorylation in mouse P12 cells allografted in po dosed nu/nu mouse administered as single dose measured after 1 to 2 hrs post dosing; assay type: functional, organism-based
[23] = Cmax in nude mouse at 50 mg/kg, po; assay type: ADME, organism-based; design: dose 50 mg/kg, route oral; conditions: in vivo
COLO 205 [24] = assay: Potentiation of gemcitabine-induced antitumor activity against human COLO205 cells xenografted in nude mouse assessed as tumor growth inhibition at 50 mg/kg, po for 1 week followed by drug cessation measured after 14 days; assay type: functional, organism-based
COLO 205 [25] = assay: Potentiation of gemcitabine-induced antitumor activity against human COLO205 cells xenografted in nude mouse assessed as tumor growth inhibition at 25 mg/kg, po for 2 weeks; assay type: functional, organism-based
Mus musculus = assay: T>IC50 for IGF1R in nude mouse at 50 mg/kg, po
[26] = AUC in nude mouse at 50 mg/kg, po; assay type: ADME, organism-based; conditions: in vivo
P12 [27] = assay: Antitumor activity against mouse P12 cells allografted in nu/nu mouse assessed as tumor growth inhibition at 12.5 to 25 mg/kg, po qd for 7 days; assay type: functional, organism-based
COLO 205 [28] = assay: Antitumor activity against human COLO205 cells xenografted in nude mouse assessed as tumor growth inhibition at 50 mg/kg, po for 2 days per week; assay type: functional, organism-based
COLO 205 [29] = assay: Potentiation of gemcitabine-induced antitumor activity against human COLO205 cells xenografted in nude mouse assessed as increase in stasis at 50 mg/kg, po for 1 week; assay type: functional, organism-based

- logD [1]: 3.5
SMILES: CCOc1nn(C2CCN(C(C)=O)CC2)cc1Nc1ncc(Cl)c(-c2cnn3ccccc23)n1

- logD [1]: 1.7
- solubility thermodynamic at 24 h [2]: 670 µM (≈ 331 µg/mL)
SMILES: Cc1nn(C2CCN(C(=O)[C@H](C)N)CC2)c(C)c1Nc1ncc(Cl)c(-c2cnn3ccccc23)n1

- logD [1]: 2.8
- IC50 [3]: 135 nM
SMILES: CC(=O)N1CCC(n2cc(Nc3ncc(Cl)c(-c4cnc5ccccn45)n3)c(C)n2)CC1

- bioavailability [4]: 6%
- bioavailability [5]: 81%
- clearance [6]: 8 mL/min/kg
- Vd [7]: 1.6 L/kg
- logD [1]: 2.6
- hepatocyte CLint [8]: 12 µL/min/1e6 cells
- solubility thermodynamic at 24 h [2]: 2 µM (≈ 0.962 µg/mL)
- hepatocyte CLint [9]: < 3 µL/min/1e6 cells
- fraction unbound [10]: 0.12
- fraction unbound [11]: 0.091
- Vd [12]: 1.2 L/kg
- hepatocyte CLint [13]: 6.4 µL/min/1e6 cells
- clearance [14]: 5 mL/min/kg
SMILES: Cc1nn(C2CCN(C(=O)CO)CC2)c(C)c1Nc1ncc(Cl)c(-c2cnn3ccccc23)n1

- logD [1]: 2.5
- solubility thermodynamic at 24 h [2]: 37 µM (≈ 17.3 µg/mL)
SMILES: Cc1nn(C2CCN(CCO)CC2)c(C)c1Nc1ncc(Cl)c(-c2cnn3ccccc23)n1

- bioavailability [15]: 9%
- logD [1]: 3.2
- hepatocyte CLint [8]: 48 µL/min/1e6 cells
- solubility thermodynamic at 24 h [2]: 9 µM (≈ 4.06 µg/mL)
- clearance [16]: 62 mL/min/kg
- Vd [17]: 1.6 L/kg
- fraction unbound [11]: 0.072
SMILES: CC(=O)N1CCC(n2cc(Nc3ncc(Cl)c(-c4cnn5ccccc45)n3)c(C)n2)CC1

- logD [1]: 2.8
- solubility thermodynamic at 24 h [2]: 17 µM (≈ 8.41 µg/mL)
SMILES: Cc1nn(C2CCN(C(=O)[C@H](C)O)CC2)c(C)c1Nc1ncc(Cl)c(-c2cnn3ccccc23)n1

- logD [1]: 1.3
- solubility thermodynamic at 24 h [2]: 260 µM (≈ 125 µg/mL)
SMILES: Cc1nn(C2CCN(C(=O)CN)CC2)c(C)c1Nc1ncc(Cl)c(-c2cnn3ccccc23)n1

- logD [1]: 2.9
- solubility thermodynamic at 24 h [2]: 510 µM (≈ 259 µg/mL)
SMILES: Cc1nn(C2CCN(CC(=O)N(C)C)CC2)c(C)c1Nc1ncc(Cl)c(-c2cnn3ccccc23)n1

- logD [1]: 3.2
- solubility thermodynamic at 24 h [2]: 15 µM (≈ 7.41 µg/mL)
SMILES: CNC(=O)CN1CCC(n2nc(C)c(Nc3ncc(Cl)c(-c4cnn5ccccc45)n3)c2C)CC1

- logD [1]: 3.3
SMILES: COc1nn(C2CCN(C(C)=O)CC2)cc1Nc1ncc(Cl)c(-c2cnn3ccccc23)n1

- logD [1]: 0.9
SMILES: Cc1c(Nc2ncc(Cl)c(-c3cnc4ccccn34)n2)cnn1C1CCNCC1

- logD [1]: 3.3
SMILES: CCc1c(Nc2ncc(Cl)c(-c3cnn4ccccc34)n2)cnn1C1CCN(C(C)=O)CC1

- logD [1]: 1.2
- solubility thermodynamic at 24 h [2]: 91 µM (≈ 38.5 µg/mL)
SMILES: Cc1nn(C2CCNCC2)c(C)c1Nc1ncc(Cl)c(-c2cnn3ccccc23)n1

- logD [1]: 2.8
- solubility thermodynamic at 24 h [2]: 31 µM (≈ 15.3 µg/mL)
SMILES: COCC(=O)N1CCC(n2nc(C)c(Nc3ncc(Cl)c(-c4cnn5ccccc45)n3)c2C)CC1

- logD [1]: 1.4
- solubility thermodynamic at 24 h [2]: > 1000 µM
SMILES: CNCC(=O)N1CCC(n2nc(C)c(Nc3ncc(Cl)c(-c4cnn5ccccc45)n3)c2C)CC1

- logD [1]: 3.4
SMILES: CCc1nn(C2CCN(C(C)=O)CC2)cc1Nc1ncc(Cl)c(-c2cnn3ccccc23)n1

- logD [1]: 3.1
- IC50 [18]: 66 nM
- IC50 [19]: 42 nM
- IC50 [20]: 21 nM
- IC50 [21]: 37 nM
- IC50 [3]: 25 nM
SMILES: CC(=O)N1CCC(n2cc(Nc3ncc(Cl)c(-c4cnc5ccccn45)n3)cn2)CC1

- logD [1]: 2.8
SMILES: CC(=O)N1CCC(n2nc(C)c(Nc3ncc(Cl)c(-c4cnc5ccccn45)n3)c2C)CC1

- logD [1]: 2.7
SMILES: CC(=O)N1CCC(n2ncc(Nc3ncc(Cl)c(-c4cnc5ccccn45)n3)c2C)CC1

- logD [1]: 1.1
SMILES: Cc1nn(C2CCNCC2)cc1Nc1ncc(Cl)c(-c2cnc3ccccn23)n1

- IC50 (Cytochrome P450 3A4): < 1000 nM
- logD [1]: 3.7
- solubility thermodynamic at 24 h [2]: 1 µM (≈ 0.478 µg/mL)
- IC50 [3]: 1030 nM
SMILES: COc1cc(N2CCN(C(C)=O)CC2)ccc1Nc1ncc(Cl)c(-c2cnn3ccccc23)n1

- bioavailability [4]: 63%
- bioavailability [5]: 6%
- clearance [6]: 45 mL/min/kg
- Vd [7]: 0.7 L/kg
- logD [1]: 3.2
- hepatocyte CLint [8]: 77 µL/min/1e6 cells
- solubility thermodynamic at 24 h [2]: 9 µM (≈ 4.06 µg/mL)
- hepatocyte CLint [9]: < 3 µL/min/1e6 cells
- fraction unbound [10]: 0.081
- fraction unbound [11]: 0.057
- Vd [12]: 0.4 L/kg
- hepatocyte CLint [13]: 4.8 µL/min/1e6 cells
- clearance [14]: 6 mL/min/kg
SMILES: CC(=O)N1CCC(n2ncc(Nc3ncc(Cl)c(-c4cnn5ccccc45)n3)c2C)CC1

- logD [1]: 2.9
SMILES: COc1nn(C2CCN(C(C)=O)CC2)cc1Nc1ncc(Cl)c(-c2cnc3ccccn23)n1

- logD [1]: 1.7
- solubility thermodynamic at 24 h [2]: 620 µM (≈ 306 µg/mL)
SMILES: Cc1nn(C2CCN(C(=O)[C@@H](C)N)CC2)c(C)c1Nc1ncc(Cl)c(-c2cnn3ccccc23)n1

- bioavailability [4]: 38%
- Cmax [23]: 12 µM
- bioavailability [5]: 58%
- clearance [6]: 15 mL/min/kg
- Vd [7]: 1.3 L/kg
- logD [1]: 2.9
- hepatocyte CLint [8]: 21 µL/min/1e6 cells
- AUC [26]: 30 µM·h
- solubility thermodynamic at 24 h [2]: 17 µM (≈ 8.41 µg/mL)
- hepatocyte CLint [9]: < 3 µL/min/1e6 cells
- fraction unbound [10]: 0.12
- fraction unbound [11]: 0.18
- Vd [12]: 0.8 L/kg
- hepatocyte CLint [13]: 8.1 µL/min/1e6 cells
- clearance [14]: 7 mL/min/kg
SMILES: Cc1nn(C2CCN(C(=O)[C@@H](C)O)CC2)c(C)c1Nc1ncc(Cl)c(-c2cnn3ccccc23)n1
- inhibition (P12 [22]): Dose-dependent effect
- TGI (COLO 205 [24]): Active
- TGI (COLO 205 [25]): Active
- Time (Mus musculus): 8 h
- TGI (P12 [27]): Active
- TGI (COLO 205 [28]): Active
- Activity (COLO 205 [29]): Active

- bioavailability [5]: 61%
- clearance [6]: 18 mL/min/kg
- logD [1]: 3.1
- hepatocyte CLint [8]: 23 µL/min/1e6 cells
- solubility thermodynamic at 24 h [2]: 4 µM (≈ 1.86 µg/mL)
- hepatocyte CLint [9]: 8.9 µL/min/1e6 cells
- fraction unbound [10]: 0.12
- fraction unbound [11]: 0.086
- Vd [12]: 1.3 L/kg
- hepatocyte CLint [13]: 9.6 µL/min/1e6 cells
SMILES: CC(=O)N1CCC(n2nc(C)c(Nc3ncc(Cl)c(-c4cnn5ccccc45)n3)c2C)CC1
